This test concerns the target Acetylcholinesterase (Electrophorus electricus, UniProt O42275).

Here are results for two molecules from ChEMBL document CHEMBL1124019, “Synthesis and anticholinesterase activity of (-)-N1-norphysostigmine, (-)-eseramine, and other N(1)-substituted analogues of (-)-physostigmine” (J Med Chem, 1988).

Each structure is given as a SMILES string.

Chain of Acetylcholinesterase (O42275 whole entry): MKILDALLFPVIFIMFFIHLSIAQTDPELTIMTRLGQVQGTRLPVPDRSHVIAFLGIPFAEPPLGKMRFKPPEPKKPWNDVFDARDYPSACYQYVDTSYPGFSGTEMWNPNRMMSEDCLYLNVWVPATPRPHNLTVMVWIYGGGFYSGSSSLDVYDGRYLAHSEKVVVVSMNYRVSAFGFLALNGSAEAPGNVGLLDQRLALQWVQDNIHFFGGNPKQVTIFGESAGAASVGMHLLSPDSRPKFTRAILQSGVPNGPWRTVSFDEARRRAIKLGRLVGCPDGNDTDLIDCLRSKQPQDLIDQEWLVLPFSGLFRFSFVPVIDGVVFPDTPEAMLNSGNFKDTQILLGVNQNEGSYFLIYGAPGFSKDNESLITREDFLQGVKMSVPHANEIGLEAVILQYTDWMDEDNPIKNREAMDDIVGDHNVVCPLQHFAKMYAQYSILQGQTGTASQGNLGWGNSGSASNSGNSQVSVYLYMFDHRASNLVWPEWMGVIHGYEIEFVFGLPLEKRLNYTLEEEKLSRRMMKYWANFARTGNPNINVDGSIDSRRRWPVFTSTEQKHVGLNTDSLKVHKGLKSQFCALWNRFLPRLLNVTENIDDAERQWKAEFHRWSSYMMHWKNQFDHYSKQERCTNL
Description: In vitro inhibitory activity against acetylcholinesterase from electric eel

In general, IC50 refers to the point on the concentration scale where inhibition reaches its midpoint. A low value points to higher potency. `CNC(=O)Oc1ccc2c(c1)[C@]1(C)CCN(C(=O)NC)C1N2C` (some centres not stated): the concentration for half-maximal inhibition (IC50) was 9.3 µM.

With `CN(C)C(=O)Oc1cccc([N+](C)(C)C)c1` [NEOSTIGMINE BROMIDE], half-maximal inhibition (IC50) required 0.087 µM.
